The source of these data is patent US11446267B2, “Nanoparticle compositions, methods of fabrication, and use for drug delivery” (DIGNITY HEALTH, priority 2017, dated 2022).

One data set concerns RXRs. The note with it: cited from earlier work.
A further data set concerns the target T1, RARα (Homo sapiens, UniProt P10276).
T1 sequence (P10276 1-462): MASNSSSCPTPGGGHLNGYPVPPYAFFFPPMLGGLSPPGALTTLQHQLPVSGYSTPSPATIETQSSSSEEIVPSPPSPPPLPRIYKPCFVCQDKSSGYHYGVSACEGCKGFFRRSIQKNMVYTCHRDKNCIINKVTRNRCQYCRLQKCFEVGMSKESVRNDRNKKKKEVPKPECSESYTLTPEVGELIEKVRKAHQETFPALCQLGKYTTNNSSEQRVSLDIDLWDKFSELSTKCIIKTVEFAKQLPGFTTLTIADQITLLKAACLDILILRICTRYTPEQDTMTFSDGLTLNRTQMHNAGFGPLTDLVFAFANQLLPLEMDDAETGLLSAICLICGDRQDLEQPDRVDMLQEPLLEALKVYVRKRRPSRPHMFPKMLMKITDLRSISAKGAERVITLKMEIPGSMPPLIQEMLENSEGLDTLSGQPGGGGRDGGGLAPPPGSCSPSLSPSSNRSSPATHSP
The note with it: cited from earlier work.

Another data set has as its target T2, RARβ (Homo sapiens, UniProt P10826).
T2 sequence (P10826 1-455): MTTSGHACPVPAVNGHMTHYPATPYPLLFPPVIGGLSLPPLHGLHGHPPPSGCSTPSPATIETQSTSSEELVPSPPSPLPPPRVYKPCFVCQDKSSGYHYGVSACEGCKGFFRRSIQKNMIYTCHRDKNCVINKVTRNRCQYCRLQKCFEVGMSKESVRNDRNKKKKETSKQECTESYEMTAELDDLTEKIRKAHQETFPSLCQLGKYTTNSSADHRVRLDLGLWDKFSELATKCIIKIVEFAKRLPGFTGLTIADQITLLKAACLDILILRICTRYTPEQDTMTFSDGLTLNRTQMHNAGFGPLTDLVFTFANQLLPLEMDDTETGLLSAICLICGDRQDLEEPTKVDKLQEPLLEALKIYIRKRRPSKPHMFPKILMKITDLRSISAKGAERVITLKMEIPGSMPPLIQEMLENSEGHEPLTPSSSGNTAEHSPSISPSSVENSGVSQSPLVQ
The note with it: cited from earlier work.

The test system of the next data set is primary motor neurons. The note with it: oxidative injury and excitotoxicity; cited from earlier work.
For data set [1] the following is noted: cited from earlier work.
For data set [2] the following is noted: in vivo; cited from earlier work.
For the next data set, the system named is MAPK signaling. The data set can be described thus: MAPK signaling after direct injection into the striatum. In kind it is in vivo. The note with it: injected directly into the striatum of healthy mice.
For data set [3] the following is noted: chronic administration; cited from earlier work.
A further data set concerns ALS patients. The note with it: subset of ALS patients, phase III study; cited from earlier work.

With `COc1ccc(-c2ccc3cc(C(=O)O)ccc3c2)cc1C12CC3CC(CC(C3)C1)C2` [Adapalene], the “interaction with RXRs” value with RXRs is recorded as “does not interact”. In addition, the results for the AC50 at RARα and at RARβ were 9.2 nM and 2.2 nM, respectively. Also, the cell death result in the data set with primary motor neurons was “reduced cell death”. Moreover, the solubility in water result in [1] is “less than 1 μg/ml”. In addition, the “clearance from the plasma” value in [2] was “rapidly cleared from the plasma”. The “activation of MAPK signaling” value in the data set with MAPK signaling is given as “equivalently activated MAPK signaling”.
Turning to `C=C(c1ccc(C(=O)O)cc1)c1cc2c(cc1C)C(C)(C)CCC2(C)C` [bexarotene], in data set [3], the “motor impairments, lifespan, neuroprotection” value was “reduced motor impairments, increased lifespan and was neuroprotective”.
As to `CC1=NN(c2ccccc2)C(=O)C1` [Edaravone], the disease progression entry in the data set with ALS patients is given as “reduce disease progression”.
